The results in this text go back to patent publication US6635786B2, “Symmetrically disubstituted aromatic compounds and pharmaceutical compositions for inhibiting poly (ADP-ribose) glycohydrolase, and methods for their use” (Guilford Pharmaceuticals, Inc., priority 2001, dated 2003).

The target of the first data set is T1, human PARG (Homo sapiens, UniProt Q86W56).
T1 construct: human PARG from amino acid 378 to 976; GST (glutathione-S-transferase, pGEX-4T1) (N); made in house; host or cells: E. coli BL21
T1 sequence (Q86W56 378-976): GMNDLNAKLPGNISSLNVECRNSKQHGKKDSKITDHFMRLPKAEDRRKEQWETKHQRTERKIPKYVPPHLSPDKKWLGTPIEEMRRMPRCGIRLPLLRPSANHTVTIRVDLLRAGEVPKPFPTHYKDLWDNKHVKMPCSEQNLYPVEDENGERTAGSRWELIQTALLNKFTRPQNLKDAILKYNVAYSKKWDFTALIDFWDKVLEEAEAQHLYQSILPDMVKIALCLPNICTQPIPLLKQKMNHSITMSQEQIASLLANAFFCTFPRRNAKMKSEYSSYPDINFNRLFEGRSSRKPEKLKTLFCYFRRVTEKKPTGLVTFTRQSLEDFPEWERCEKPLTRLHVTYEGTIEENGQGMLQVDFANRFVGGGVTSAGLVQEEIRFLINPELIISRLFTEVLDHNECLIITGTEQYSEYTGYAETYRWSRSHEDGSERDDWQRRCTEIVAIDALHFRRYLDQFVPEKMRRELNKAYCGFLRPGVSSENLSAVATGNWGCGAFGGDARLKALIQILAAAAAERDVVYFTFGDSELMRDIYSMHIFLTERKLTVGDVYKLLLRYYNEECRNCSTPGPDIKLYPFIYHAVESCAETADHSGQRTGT
Description: PARG enzymatic assay. Format: biochemical. The conditions noted are these: recombinant GST-fused human PARG (aa 378-976); 3H-labeled poly-(ADP-ribose) substrate; 23° C., 10 min. Here is the method: The potency of PARG inhibition was determined in a PARG enzymatic assay. For each compound, various doses were used to inhibit the PARG reaction. A dose responsible curve was generated to determine the IC50 value and the concentration (in μM) required to achieve 50% inhibition of the reaction.
The PARG assay consisted of (a) preparation of 3H-labeled radioactive PARG as substrate, (b) purification of recombinant PARG, (c) incubation of the compound with the PARG reaction, (d) separation of the product by absorption to glass fiber filter and quantifying the radioactivity of ADP-ribose by scintillation counting.
3H-labeled poly-(ADP-ribose) was made by mixing labeled and unlabeled PAR. Labeled PAR was synthesized in a reaction of 50 mM Tris-HCl (pH 8.0), 4 mM MgCl2, 0.8 μg/mL activated DNA, 3 μM NAD, NEN 3H-NAD (0.1 mCi/mL), 0.8 μl/mL and 1.4 μl/mL Trevigen PARP. The reaction was incubated at room temperature for 60 min, then dialyzed to remove unincorporated 3H NAD using a MWCO 7000 dialysis cassette in 50 mM Phosphate buffer (pH 7.1) at 5° C. over night. Buffer was changed and dialysis continued for 2 h in the morning. The resulting 3H PAR gave 80,000 DPM/10 μL by scintillation counting.
Unlabeled PAR was synthesized in a reaction that consisted of 50 mM Tris-HCl (pH 8.0), 4 mM MgCl2, 0.8 μg/mL activated DNA, 150 μM NAD, and 1.9 μl/mL Trevigen PARP. The reaction was incubated at room temperature for 60 min, and dialyzed to remove unincorporated NAD in a MWCO 7000 cassette using 50 mM Phosphate buffer (pH 7.1) over night at […]. Buffer was changed and dialysis continued for 2 h in the morning. The OD260 of synthesized PAR is […].
The final PAR mix is made by combining 3H-PAR and PAR synthesized @ 150 μM NAD so that the OD260=0.2-0.3 and the DPM/10 μL=10,000 DPM (SA=0.45 Ci/mmole). EDTA was added to 1 mM.
A cDNA fragment encoding the carboxy terminal part of human PARG from amino acid 378 to 976 was amplified by polymerase chain reaction with human thymus cDNA (Clontech, Palo Alto, Calif.) as a template and a pair of primers with the sequences of 5′-[…]-3′ and 5′-[…]-3′. The primers contained the restriction enzyme sites EcoRI and XhoI. The PCR amplified PARG DNA fragment was digested with EcoRI and XhoI, and then ligated to the same sites in pGEX-4T1 plasmid (acquired from Pharmacia/Upjohn Co., Kalamazoo, Mich.) to create pGEX-PARG by using standard molecular biology procedure. The pGEX-PARG was transformed into E. coli strain BL21 for expressing the recombinant protein that has a glutathione-S-transferase at the amino terminus and fused in frame with PARG at the carboxy terminus. The recombinant protein was expressed and purified using glutathione-sephadex 4B beads according to the standard methodology.
A range of potential PARG inhibitors at final concentrations of 200.0 to 0.1 μM were tested, each point done in triplicate. The compounds were dissolved in DMSO resulting in a final DMSO concentration of 5.0%. The reaction was carried out in a volume of 0.1 mL. PARG enzyme was added to a concentration of 0.05 μL/mL to microtiter plates containing approximately 10 μM 3H-labeled poly-(ADP-ribose) in 50 mM Phosphate buffer (pH 7.1), 5 mM B-mercaptoethanol. The reaction was incubated at 23° C. for 10 min. and was stopped with the addition of TCA to a final concentration of 10%.
Enzyme activity was measured by the disappearance of substrate, [poly-(ADP-ribose) polymer], which was quantified as the loss of glass fiber filter adsorbed radioactivity. The reaction was harvested onto Millipore GFC96 well filter plates using the Packard Cell Harvestor. The plates were washed three times with 70% ethanol, air dried, and the radioactivity was measured by scintillation counting.
As for `O=C(OCc1ccccc1)c1ccc2c(c1)C(Cl)(Cl)c1cc(C(=O)OCc3ccccc3)ccc1-2` [Example 1, 9,9-Dichloro-9H-fluorene-2,7-dicarboxylic acid bis-benzyl ester], the IC50 (usually the point on the concentration scale where inhibition reaches its midpoint) was found to be 13.5 µM. Consider `O=C(OCCCc1ccccc1)c1ccc2c(c1)C(Cl)(Cl)c1cc(C(=O)OCCCc3ccccc3)ccc1-2` [Example 2, 9,9-Dichloro-9H-fluorene-2,7-dicarboxylic acid bis-(3-phenyl-propyl) ester], for which the IC50 was 11.3 µM. On the same count and under the same terms, the figure for `O=C(NCCc1ccccc1)c1cccc(C(=O)c2cccc(C(=O)NCCc3ccccc3)c2)c1` [Example 21, 3,3′-Bis(N-phenethyl)carbamoyl-benzophenone] is 65.6 µM; for `O=C(NCc1ccccc1)c1ccc2c(c1)-c1ccc(C(=O)NCc3ccccc3)c3cccc-2c13` [Example 23, 3,9-Bis(N-phenylmethyl)fluoranthenedicarboxamide] it is 35.2 µM; for `O=C(NCCN1CCCCC1)c1ccc2c(c1)-c1ccc(C(=O)NCCN3CCCCC3)c3cccc-2c13` [Example 24, 3,9-Bis[N-(2-piperidin-1-yl)ethyl]fluoranthenedicarboxamide] it is 57 µM. With `O=C(NCCN1CCCC1)c1ccc2c(c1)-c1ccc(C(=O)NCCN3CCCC3)c3cccc-2c13` [Example 25, 3,9-Bis[N-(2-pyrrolidin-1-yl)-ethyl]fluoranthenedicarboxamide], the IC50 turned out to be 28.6 µM. For the compound `O=C(NCc1cccnc1)c1ccc2c(c1)-c1ccc(C(=O)NCc3cccnc3)c3cccc-2c13` [Example 26, 3,9-Bis[N-(pyridin-3-yl)methyl]fluoranthenedicarboxamide], the IC50 was determined as 100 µM. For `O=C(NCCCN1CCOCC1)c1ccc2c(c1)-c1ccc(C(=O)NCCCN3CCOCC3)c3cccc-2c13` [Example 27], the IC50 came to 100 µM. For the compound `COc1ccc(CNC(=O)c2ccc3c(c2)-c2ccc(C(=O)NCc4ccc(OC)c(OC)c4)c4cccc-3c24)cc1OC` [Example 28, 3,9-Bis[N-(3,4-dimethoxy-benzyl)]fluoranthenedicarboxamide], the IC50 turned out to be 11.1 µM.

As for `O=C(NCCOc1ccccc1)c1ccc2c(c1)-c1ccc(C(=O)NCCOc3ccccc3)c3cccc-2c13` [Example 29, 3,9-Bis[N-(2-phenoxy)ethyl]fluoranthenedicarboxamide], the IC50 was 29 µM. Take `O=C(NCCc1ccc(Cl)cc1Cl)c1ccc2c(c1)-c1ccc(C(=O)NCCc3ccc(Cl)cc3Cl)c3cccc-2c13` [Example 30, 3,9-Bis[N-[2-(2,4-dichloro-phenyl)]-ethyl]fluoranthenedicarboxamide]: the IC50 was 21.2 µM. In the case of `N#CC1CCC(CNC(=O)c2ccc3c(c2)-c2ccc(C(=O)NCC4CCC(C#N)CC4)c4cccc-3c24)CC1` (stereo not shown) [Example 31], the IC50 amounted to 30.4 µM. Still for that read-out and setting: then `COc1ccccc1CCNC(=O)c1ccc2c(c1)-c1ccc(C(=O)NCCc3ccccc3OC)c3cccc-2c13` [Example 32, 3,9-Bis{N-[2-(2-methoxy-phenyl)]-ethyl}fluoranthenedicarboxamide], with 21.1 µM.

For the compound `COc1cccc(CCNC(=O)c2ccc3c(c2)-c2ccc(C(=O)NCCc4cccc(OC)c4)c4cccc-3c24)c1` [Example 33, 3,9-Bis{N-[2-(3-methoxy-phenyl)]-ethyl}fluoranthenedicarboxamide], the IC50 is 45.5 µM. Still for that read-out and setting: the figure for `NS(=O)(=O)c1ccc(CCNC(=O)c2ccc3c(c2)-c2ccc(C(=O)NCCc4ccc(S(N)(=O)=O)cc4)c4cccc-3c24)cc1` [Example 35, 3,9-Bis[N-[2-(4-sulfamoyl-phenyl)]-ethyl]fluoranthenedicarboxamide] is 15.1 µM; for `O=C(OCc1ccccn1)c1ccc2c(c1)-c1ccc(C(=O)OCc3ccccn3)c3cccc-2c13` [Example 36, 3,9-Bis(2-pyridinylmethyl)fluoranthenedicarboxylate] it is 106 µM; for `O=C(CCCl)c1ccc2oc3ccc(C(=O)CCCl)cc3c(=O)c2c1` [Example 38, 2,7-Bis-(3-chloro-propionyl)-xanthen-9-one] it is 17 µM.

As to `O=C(c1cccc2c1S(=O)(=O)c1c(cccc1C(=O)N1CCN(c3ccc(F)cc3)CC1)O2)N1CCN(c2ccc(F)cc2)CC1` [Example 43, 1,9-Bis{N-[4-(4-fluoro-phenyl)-piperazine-carbamoyl]}-10,10-dioxo-phenoxathiin], the IC50 is 5.7 µM. Still for that read-out and setting: the figure for `O=C(c1cccc2c1S(=O)(=O)c1c(cccc1C(=O)N1CCN(c3ccc(C(F)(F)F)cc3)CC1)O2)N1CCN(c2ccc(C(F)(F)F)cc2)CC1` [Example 44, 1,9-Bis-{N-[4-(4-trifluoromethyl-phenyl)-piperazine]carbamoyl}-10,10-dioxo-phenoxathiin] is 12 µM; for `O=C(c1cccc2c1S(=O)(=O)c1c(cccc1C(=O)N1CCN(c3ccc(O)cc3)CC1)O2)N1CCN(c2ccc(O)cc2)CC1` [Example 45, 1,9-Bis{N-[4-(4-hydroxy-phenyl)-piperazine]carbamoyl}-10,10-dioxo-phenoxathiin] it is 37.9 µM. Still for that read-out and setting: then `O=C(c1cccc2c1S(=O)(=O)c1c(cccc1C(=O)N1CCN(c3ccncc3)CC1)O2)N1CCN(c2ccncc2)CC1` [Example 46, 1,9-Bis{N-[4-(pyridin-4-yl)-piperazine]carbamoyl}-10,10-dioxo-phenoxathiin], with 28.4 µM. Regarding `O=C(NCCCc1ccccc1)c1cccc2c1S(=O)(=O)c1c(cccc1C(=O)NCCCc1ccccc1)O2` [Example 47, 1,9-Bis-[N-(3-phenpropyl)carbamoyl]-10,10-dioxo-phenoxathiin], the IC50 turned out to be 100 µM.

Consider `O=C(NCCc1ccc(Cl)cc1Cl)c1cccc2c1S(=O)(=O)c1c(cccc1C(=O)NCCc1ccc(Cl)cc1Cl)O2` [Example 48, 1,9-Bis{N-[2-(2,4-dichlorophenyl)ethyl]carbamoyl}-10,10-dioxo-phenoxathiin], for which the IC50 is 38.7 µM. Take `O=C(NCCN1CCCC1)c1cccc2c1S(=O)(=O)c1c(cccc1C(=O)NCCN1CCCC1)O2` [Example 49, 1,9-Bis{N-[2-(pyrrolidin-1-yl)ethyl]carbamoyl}-10,10-dioxo-phenoxathiin]: the IC50 amounted to 9.9 µM. On to `O=C(NCCc1cccs1)c1cccc2c1S(=O)(=O)c1c(cccc1C(=O)NCCc1cccs1)O2` [Example 50, 1,9-Bis{N-[2-(thiophen-2-yl)ethyl]carbamoyl}-10,10-dioxo-phenoxathiin], for which the IC50 stood at 11.5 µM. On to `O=C(NCCCN1CCOCC1)c1cccc2c1S(=O)(=O)c1c(cccc1C(=O)NCCCN1CCOCC1)O2` [Example 51, 1,9-Bis{N-[3-(morpholin-4-yl)-propyl]carbamoyl}-10,10-dioxo-phenoxathiin], for which the IC50 worked out at 9.6 µM. Regarding `COc1cc(CCNC(=O)c2cccc3c2S(=O)(=O)c2c(cccc2C(=O)NCCc2cc(OC)cc(OC)c2)O3)cc(OC)c1` [Example 52, 1,9-Bis {N-[2-(3,5-dimethoxyphenyl)ethyl]carbamoyl}-10,10-dioxo-phenoxathiin], the IC50 is 31.6 µM. Consider `CN(CCCC(=O)c1ccc2c(c1)-c1ccc(C(=O)CCCN(C)c3ccccc3)c3cccc-2c13)c1ccccc1` [Example 53, 3,9-Bis[4-(methylphenylamino)butyryl]fluoranthene], for which the IC50 was 11.8 µM. In the case of `O=C(CCCn1cccc1)c1ccc2c(c1)-c1ccc(C(=O)CCCn3cccc3)c3cccc-2c13` [Example 54, 3,9-Bis[4-(1-pyrrolo)butyryl]fluoranthene], the IC50 came to 5.4 µM.

System in the next data set: not given
Experiment: not given
Conditions: not given
Take `O=C(OCc1ccccc1)c1ccc2c(c1)C(Cl)(Cl)c1cc(C(=O)OCc3ccccc3)ccc1-2` [Example 1, 9,9-Dichloro-9H-fluorene-2,7-dicarboxylic acid bis-benzyl ester]: the melting point (commonly the temperature of the solid-liquid transition) was in the range of 159 to 162 °C. The compound `O=C(OCCCc1ccccc1)c1ccc2c(c1)C(Cl)(Cl)c1cc(C(=O)OCCCc3ccccc3)ccc1-2` [Example 2, 9,9-Dichloro-9H-fluorene-2,7-dicarboxylic acid bis-(3-phenyl-propyl) ester] had a melting point of 91 to 92 °C.
